Consider seven compounds from ChEMBL document CHEMBL5465560, “Selectivity Literature for EUbOPEN Chemogenomic Library” (2024).

In test [1] the target is T1, MAP kinase-activated protein kinase 5 (Homo sapiens) (UniProt Q8IW41).
T1 sequence (whole entry): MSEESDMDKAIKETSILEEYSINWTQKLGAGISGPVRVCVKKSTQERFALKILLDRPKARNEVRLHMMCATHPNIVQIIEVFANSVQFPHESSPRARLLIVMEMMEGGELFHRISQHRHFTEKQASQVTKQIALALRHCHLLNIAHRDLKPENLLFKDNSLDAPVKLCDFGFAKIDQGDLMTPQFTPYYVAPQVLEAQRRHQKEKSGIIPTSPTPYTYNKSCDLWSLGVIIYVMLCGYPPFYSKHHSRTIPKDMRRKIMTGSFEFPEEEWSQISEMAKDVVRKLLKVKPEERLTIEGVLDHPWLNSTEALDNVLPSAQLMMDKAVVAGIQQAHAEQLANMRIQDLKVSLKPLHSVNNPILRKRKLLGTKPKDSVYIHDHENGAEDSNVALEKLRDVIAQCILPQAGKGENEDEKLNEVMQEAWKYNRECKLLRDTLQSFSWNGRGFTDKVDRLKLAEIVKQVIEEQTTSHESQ
Nature of the test: Selectivity interaction (Ambit KINOMEscan and KiNATiv profiling in Jurkat cells) EUB0000090b MAPKAPK5. The format is cell-based. The following applies: at 1 µM.

Test [2] addresses T2, Tyrosine-protein kinase Tec (Homo sapiens) (UniProt P42680).
T2 sequence (whole entry): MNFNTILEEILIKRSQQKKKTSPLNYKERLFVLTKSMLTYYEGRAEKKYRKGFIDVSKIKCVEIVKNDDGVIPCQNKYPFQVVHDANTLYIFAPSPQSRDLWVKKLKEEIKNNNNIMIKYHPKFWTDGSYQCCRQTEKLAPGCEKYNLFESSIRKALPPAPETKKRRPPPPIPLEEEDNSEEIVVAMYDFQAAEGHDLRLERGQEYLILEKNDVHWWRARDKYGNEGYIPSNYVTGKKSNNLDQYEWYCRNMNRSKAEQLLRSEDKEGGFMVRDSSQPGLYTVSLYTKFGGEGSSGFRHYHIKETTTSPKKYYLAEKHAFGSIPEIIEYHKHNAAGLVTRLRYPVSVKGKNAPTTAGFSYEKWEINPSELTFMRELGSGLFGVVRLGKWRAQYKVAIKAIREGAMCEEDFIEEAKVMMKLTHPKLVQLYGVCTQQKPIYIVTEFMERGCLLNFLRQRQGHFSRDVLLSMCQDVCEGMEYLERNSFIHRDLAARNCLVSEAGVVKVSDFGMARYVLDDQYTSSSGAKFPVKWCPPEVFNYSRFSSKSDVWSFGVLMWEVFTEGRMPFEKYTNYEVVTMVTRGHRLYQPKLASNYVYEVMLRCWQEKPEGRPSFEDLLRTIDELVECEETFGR
As to conditions: at 10 µM.

Test [3] has as its target Cyclin-dependent kinase 8 (Homo sapiens, UniProt P49336). Nature of the test: Selectivity interaction (KinomeScan (DiscoverX)) EUB0001079a CDK8. The following applies: at 1 µM.
Test [4] deals with Interferon-induced, double-stranded RNA-activated protein kinase (Homo sapiens) (UniProt P19525). Nature of the test: Selectivity interaction (KinomeScan (DiscoverX)) EUB0001049a EIF2AK2. As to conditions: at 1 µM.
For test [5], the target named is T3, Serine/threonine-protein kinase greatwall (Homo sapiens) (UniProt Q96GX5).
T3 sequence (whole entry): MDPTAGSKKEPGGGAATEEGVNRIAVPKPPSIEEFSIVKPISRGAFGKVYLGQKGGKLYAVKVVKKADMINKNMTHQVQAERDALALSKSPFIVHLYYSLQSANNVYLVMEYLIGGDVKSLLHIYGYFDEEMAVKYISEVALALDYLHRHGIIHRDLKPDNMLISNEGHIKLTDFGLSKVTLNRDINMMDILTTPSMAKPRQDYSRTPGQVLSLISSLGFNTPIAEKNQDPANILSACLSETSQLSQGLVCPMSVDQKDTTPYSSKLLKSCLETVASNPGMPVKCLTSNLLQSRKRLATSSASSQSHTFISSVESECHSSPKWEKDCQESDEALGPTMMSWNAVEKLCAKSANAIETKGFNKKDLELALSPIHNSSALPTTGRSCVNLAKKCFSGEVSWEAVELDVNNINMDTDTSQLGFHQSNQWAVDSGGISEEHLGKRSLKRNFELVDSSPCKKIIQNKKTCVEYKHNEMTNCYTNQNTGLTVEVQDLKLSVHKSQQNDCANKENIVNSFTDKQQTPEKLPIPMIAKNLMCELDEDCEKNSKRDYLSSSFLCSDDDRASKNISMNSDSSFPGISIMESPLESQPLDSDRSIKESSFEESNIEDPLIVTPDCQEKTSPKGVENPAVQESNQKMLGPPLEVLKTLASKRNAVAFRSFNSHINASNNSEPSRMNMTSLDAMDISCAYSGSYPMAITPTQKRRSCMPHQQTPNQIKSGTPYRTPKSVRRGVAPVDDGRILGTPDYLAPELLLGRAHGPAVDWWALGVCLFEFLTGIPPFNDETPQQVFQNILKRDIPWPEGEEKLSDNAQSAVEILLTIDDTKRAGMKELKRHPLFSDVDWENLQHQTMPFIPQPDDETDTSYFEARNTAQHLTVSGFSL
Nature of the test: Selectivity interaction (ActivX KiNativ screen (kinase selectivity in THP-1 cell lysates)) EUB0000639a MASTL. The format is subcellular. As to conditions: lysate.

For test [6], the target named is Non-receptor tyrosine-protein kinase TYK2 (Homo sapiens, UniProt P29597). Nature of the test: Selectivity interaction (ActivX KiNativ screen (kinase selectivity in THP-1 cell lysates)) EUB0000639a TYK2. The format is subcellular. The following applies: lysate, at 5 µM.
The target of test [7] is MAP kinase-interacting serine/threonine-protein kinase 1 (Homo sapiens) (UniProt Q9BUB5). Nature of the test: Selectivity interaction (KinomeScan (DiscoverX)) EUB0000229b MKNK1. The following applies: at 10 µM.
Test [8] concerns the target Microtubule-associated serine/threonine-protein kinase 1 (Homo sapiens) (UniProt Q9Y2H9). Nature of the test: Selectivity interaction (KinomeScan (DiscoverX)) EUB0000595a MAST1. The following applies: at 10 µM.

Sequence of Non-receptor tyrosine-protein kinase TYK2 (P29597 whole entry): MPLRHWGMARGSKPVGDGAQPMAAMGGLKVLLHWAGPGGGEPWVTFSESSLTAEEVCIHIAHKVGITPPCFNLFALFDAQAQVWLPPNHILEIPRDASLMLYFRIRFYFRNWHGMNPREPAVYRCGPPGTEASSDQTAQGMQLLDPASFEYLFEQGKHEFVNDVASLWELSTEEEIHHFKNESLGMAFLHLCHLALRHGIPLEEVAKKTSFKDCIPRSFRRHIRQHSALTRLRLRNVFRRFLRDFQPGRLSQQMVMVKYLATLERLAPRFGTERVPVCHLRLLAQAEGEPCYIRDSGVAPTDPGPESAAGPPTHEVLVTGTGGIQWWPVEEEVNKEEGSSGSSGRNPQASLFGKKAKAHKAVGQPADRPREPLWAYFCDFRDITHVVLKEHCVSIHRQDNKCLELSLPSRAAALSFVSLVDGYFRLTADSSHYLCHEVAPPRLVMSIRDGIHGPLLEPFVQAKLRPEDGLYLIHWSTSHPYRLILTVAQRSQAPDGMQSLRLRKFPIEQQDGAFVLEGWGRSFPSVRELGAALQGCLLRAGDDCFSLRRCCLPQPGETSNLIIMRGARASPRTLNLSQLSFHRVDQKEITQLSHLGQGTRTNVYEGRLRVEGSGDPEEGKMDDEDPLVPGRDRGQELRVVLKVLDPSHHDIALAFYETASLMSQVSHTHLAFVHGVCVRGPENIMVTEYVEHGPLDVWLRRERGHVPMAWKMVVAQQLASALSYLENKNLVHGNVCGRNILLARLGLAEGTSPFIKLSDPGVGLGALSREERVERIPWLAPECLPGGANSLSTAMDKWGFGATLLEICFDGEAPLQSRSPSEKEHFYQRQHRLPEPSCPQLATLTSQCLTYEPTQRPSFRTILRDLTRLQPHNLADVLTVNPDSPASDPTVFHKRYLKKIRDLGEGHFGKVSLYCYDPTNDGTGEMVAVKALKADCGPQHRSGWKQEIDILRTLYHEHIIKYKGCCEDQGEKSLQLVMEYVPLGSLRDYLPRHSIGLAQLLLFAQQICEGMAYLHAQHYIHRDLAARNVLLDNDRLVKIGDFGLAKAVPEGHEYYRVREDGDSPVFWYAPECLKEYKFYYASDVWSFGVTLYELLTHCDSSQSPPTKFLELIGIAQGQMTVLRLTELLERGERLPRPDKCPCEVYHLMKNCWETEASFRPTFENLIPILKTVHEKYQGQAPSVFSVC
Sequence of MAP kinase-interacting serine/threonine-protein kinase 1 (Homo sapiens) (Q9BUB5 whole entry, looked up): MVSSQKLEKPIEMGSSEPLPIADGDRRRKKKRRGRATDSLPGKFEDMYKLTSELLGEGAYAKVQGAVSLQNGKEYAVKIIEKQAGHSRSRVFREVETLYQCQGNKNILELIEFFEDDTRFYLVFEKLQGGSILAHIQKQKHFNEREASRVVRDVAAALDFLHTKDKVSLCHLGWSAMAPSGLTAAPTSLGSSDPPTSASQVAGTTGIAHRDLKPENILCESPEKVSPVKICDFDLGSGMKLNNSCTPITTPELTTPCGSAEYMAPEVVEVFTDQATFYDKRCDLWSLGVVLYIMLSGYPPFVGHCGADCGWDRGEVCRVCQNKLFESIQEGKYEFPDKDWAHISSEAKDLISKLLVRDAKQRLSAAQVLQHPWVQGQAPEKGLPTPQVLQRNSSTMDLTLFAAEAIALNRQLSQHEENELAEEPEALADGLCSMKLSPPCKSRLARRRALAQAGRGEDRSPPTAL
Sequence of Interferon-induced, double-stranded RNA-activated protein kinase (Homo sapiens) (P19525 whole entry): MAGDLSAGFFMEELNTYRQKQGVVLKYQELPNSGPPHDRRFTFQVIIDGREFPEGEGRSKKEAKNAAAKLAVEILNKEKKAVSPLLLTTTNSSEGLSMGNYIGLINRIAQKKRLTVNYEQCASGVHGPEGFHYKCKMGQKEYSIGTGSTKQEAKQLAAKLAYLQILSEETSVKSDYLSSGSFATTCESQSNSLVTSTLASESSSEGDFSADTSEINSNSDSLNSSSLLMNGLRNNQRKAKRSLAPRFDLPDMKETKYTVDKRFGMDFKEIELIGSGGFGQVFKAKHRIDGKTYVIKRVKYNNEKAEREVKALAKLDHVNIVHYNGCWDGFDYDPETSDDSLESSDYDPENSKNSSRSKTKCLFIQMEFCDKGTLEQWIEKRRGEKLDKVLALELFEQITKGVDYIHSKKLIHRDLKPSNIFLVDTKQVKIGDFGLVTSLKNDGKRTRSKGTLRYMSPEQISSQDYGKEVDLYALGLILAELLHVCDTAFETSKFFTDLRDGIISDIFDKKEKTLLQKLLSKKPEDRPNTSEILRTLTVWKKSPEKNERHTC
Sequence of Cyclin-dependent kinase 8 (P49336 whole entry): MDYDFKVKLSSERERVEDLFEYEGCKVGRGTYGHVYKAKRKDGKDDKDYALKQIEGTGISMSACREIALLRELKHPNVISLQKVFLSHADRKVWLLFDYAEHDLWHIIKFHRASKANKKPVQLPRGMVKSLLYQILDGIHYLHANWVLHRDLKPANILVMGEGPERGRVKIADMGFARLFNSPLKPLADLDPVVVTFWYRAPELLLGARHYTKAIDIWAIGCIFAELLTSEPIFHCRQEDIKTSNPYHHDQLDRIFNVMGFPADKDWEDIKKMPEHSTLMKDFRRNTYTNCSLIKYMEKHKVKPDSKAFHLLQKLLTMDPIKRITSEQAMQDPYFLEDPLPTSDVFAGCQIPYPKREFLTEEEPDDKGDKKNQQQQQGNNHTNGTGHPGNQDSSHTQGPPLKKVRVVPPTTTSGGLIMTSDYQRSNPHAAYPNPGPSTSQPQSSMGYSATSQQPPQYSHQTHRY
Sequence of Microtubule-associated serine/threonine-protein kinase 1 (Homo sapiens) (Q9Y2H9 whole entry, looked up): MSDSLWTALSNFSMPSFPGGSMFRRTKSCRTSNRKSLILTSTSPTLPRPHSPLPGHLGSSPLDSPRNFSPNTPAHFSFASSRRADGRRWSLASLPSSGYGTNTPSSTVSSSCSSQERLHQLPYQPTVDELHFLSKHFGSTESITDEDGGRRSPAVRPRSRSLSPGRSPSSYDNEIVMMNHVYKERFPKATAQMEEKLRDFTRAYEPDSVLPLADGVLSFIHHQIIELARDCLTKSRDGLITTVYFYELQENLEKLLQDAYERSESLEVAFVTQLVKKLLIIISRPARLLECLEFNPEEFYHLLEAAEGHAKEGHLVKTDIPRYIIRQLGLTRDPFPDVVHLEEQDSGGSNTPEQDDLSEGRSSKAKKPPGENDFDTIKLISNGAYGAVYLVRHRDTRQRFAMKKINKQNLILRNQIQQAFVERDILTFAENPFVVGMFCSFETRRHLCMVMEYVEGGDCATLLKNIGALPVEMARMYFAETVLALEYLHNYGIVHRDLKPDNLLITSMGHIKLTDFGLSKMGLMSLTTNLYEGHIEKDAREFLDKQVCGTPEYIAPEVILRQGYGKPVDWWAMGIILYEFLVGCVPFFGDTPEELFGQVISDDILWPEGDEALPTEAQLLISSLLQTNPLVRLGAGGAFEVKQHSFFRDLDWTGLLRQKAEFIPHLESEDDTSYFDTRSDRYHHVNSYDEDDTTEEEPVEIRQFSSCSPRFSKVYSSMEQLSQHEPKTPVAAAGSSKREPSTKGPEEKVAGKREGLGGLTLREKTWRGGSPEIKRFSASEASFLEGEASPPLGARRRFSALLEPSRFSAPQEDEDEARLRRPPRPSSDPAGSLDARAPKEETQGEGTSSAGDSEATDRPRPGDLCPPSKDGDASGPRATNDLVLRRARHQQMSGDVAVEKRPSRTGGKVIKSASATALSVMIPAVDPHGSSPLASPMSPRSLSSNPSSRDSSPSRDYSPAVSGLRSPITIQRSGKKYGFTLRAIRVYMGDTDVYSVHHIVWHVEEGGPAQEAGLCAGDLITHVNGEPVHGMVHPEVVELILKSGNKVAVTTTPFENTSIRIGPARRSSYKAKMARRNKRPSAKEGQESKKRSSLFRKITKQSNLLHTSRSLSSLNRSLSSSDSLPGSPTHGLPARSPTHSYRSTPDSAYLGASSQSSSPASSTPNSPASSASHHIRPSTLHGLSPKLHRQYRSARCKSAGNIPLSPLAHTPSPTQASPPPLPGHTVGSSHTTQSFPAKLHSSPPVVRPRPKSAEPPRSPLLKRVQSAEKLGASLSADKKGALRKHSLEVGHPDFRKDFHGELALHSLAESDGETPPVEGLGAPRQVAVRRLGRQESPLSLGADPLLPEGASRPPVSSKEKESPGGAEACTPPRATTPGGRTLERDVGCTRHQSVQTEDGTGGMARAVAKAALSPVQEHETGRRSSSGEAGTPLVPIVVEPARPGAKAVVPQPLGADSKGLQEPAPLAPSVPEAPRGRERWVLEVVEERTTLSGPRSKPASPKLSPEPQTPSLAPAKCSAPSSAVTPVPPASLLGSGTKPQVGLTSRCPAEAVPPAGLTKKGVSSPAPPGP

Consider `CN(C)C/C=C/C(=O)Nc1ccc(C(=O)N2CCCC(Nc3ncc(Cl)c(-c4c[nH]c5ccccc45)n3)C2)cc1` (configuration not stated), for which the % of control in test [1] came out at 99%.

Regarding `CCN(CC)CCCCNc1ncc2cc(-c3cc(OC)cc(OC)c3)c(NC(=O)NC(C)(C)C)nc2n1`, in test [2], the % of control was determined as 100%.

In turn, `Nc1cnc(N2CCc3cc(S(=O)(=O)Nc4c(F)cc(Cl)cc4F)cc(N4CCCC4=O)c32)nc1` [TP-020n] displayed a % of control in test [3] of 100%.

In test [4], `COc1cc(Nc2nc(C)cc(-c3cnn4nc(OC)ccc34)n2)cc(C(F)(F)F)c1` gave a % of control of 100%.

In the case of `CC[C@@H]1[C@H](F)C(=O)N[C@@H]1COc1nccc2cc(C(N)=O)c(OC)cc12` [ZIMLOVISERTIB], the % of inhibition was -10.8% in test [5] (at 0.01 µM); 0.7% in test [5] (at 0.04 µM); 12.7% in test [5] (at 0.2 µM); 37.8% in test [5] (at 1 µM); 78.5% in test [5] (at 5 µM); 37.4% in test [6].

In test [7], `COc1cc(N(C)c2ccnc3ccc(C(F)(F)F)cc23)cc(OC)c1OC` came in with a % binding of 89%.

Take `COCC(=O)NC/C=C/c1ccc2ncnc(Nc3ccc(Oc4ccc(C)nc4)c(C)c3)c2c1` [CP-724714]: the % of control in test [8] was determined as 100%.
